Data published in PMC2947747 (Chembiochem : a European journal of chemical biology, 2008).

How the values were obtained:
Assay in all cases: reverse glycosyl transfer
Assay type in all cases: biochemical
Conditions in all cases: 1 mM GDP, 1 mM MgCl2, pH 8.0, 30 °C; reverse reaction
NysDI = NysDI (Streptomyces noursei, UniProt Q9L4W6)
NysDI-T2 = NysDI-T2 (Streptomyces noursei, UniProt Q9L4W6)
AmphDI = AmphDI (Streptomyces nodosus, UniProt Q93NW9)

C[C@@H]1[C@H](O)[C@@H](C)/C=C/C=C/C=C/C=C/C=C/C=C/C=C/[C@H](O[C@@H]2O[C@H](C)[C@@H](O)[C@H](N)[C@@H]2O)C[C@@H]2O[C@](O)(C[C@@H](O)C[C@@H](O)[C@H](O)CC[C@@H](O)C[C@@H](O)CC(=O)O[C@H]1C)C[C@H](O)[C@H]2C(=O)O [compound 1, amphotericin B]
reverse glycosyl transfer (deglycosylation), RP-HPLC (NysDI): reaction reversibility assessed in the presence of AmphDI, NysDI and NysDI-T2 | reverse glycosyl transfer (deglycosylation), RP-HPLC (NysDI-T2): reaction reversibility assessed in the presence of AmphDI, NysDI and NysDI-T2 | reverse glycosyl transfer (deglycosylation), RP-HPLC (AmphDI): reaction reversibility assessed in the presence of AmphDI, NysDI and NysDI-T2
